Laboratory results: ChEMBL document CHEMBL4177534, “Discovery and evaluation of 1H-pyrrolo[2,3-b]pyridine based selective and reversible small molecule BTK inhibitors for the treatment of rheumatoid arthritis” (Bioorg Med Chem Lett, 2017)
≈ marks a conversion by molar mass, not a printed value.

Columns and labels:
[1] = biological target: TGF-beta receptor type-2 (Homo sapiens) (UniProt P37173); assay: Inhibition of recombinant N-terminal GST-tagged TGFBR2 (unknown origin) expressed in baculovirus infected Sf9 cells assessed as change in enzyme activity at 1 uM in presence of 1 uM ATP relative to control; set-up: scale not given: the % may be the effect or the level left
[2] = biological target: Tyrosine-protein kinase ABL1 (Homo sapiens) (UniProt P00519); assay: Inhibition of recombinant human N-terminal GST-tagged ABL1 (27 to end residues) expressed in baculovirus infected Sf9 cells assessed as change in enzyme activity at 1 uM in presence of 1 uM ATP relative to control; set-up: scale not given: the % may be the effect or the level left
Tyrosine-protein kinase ABL1 (Homo sapiens), sequence (P00519 whole entry): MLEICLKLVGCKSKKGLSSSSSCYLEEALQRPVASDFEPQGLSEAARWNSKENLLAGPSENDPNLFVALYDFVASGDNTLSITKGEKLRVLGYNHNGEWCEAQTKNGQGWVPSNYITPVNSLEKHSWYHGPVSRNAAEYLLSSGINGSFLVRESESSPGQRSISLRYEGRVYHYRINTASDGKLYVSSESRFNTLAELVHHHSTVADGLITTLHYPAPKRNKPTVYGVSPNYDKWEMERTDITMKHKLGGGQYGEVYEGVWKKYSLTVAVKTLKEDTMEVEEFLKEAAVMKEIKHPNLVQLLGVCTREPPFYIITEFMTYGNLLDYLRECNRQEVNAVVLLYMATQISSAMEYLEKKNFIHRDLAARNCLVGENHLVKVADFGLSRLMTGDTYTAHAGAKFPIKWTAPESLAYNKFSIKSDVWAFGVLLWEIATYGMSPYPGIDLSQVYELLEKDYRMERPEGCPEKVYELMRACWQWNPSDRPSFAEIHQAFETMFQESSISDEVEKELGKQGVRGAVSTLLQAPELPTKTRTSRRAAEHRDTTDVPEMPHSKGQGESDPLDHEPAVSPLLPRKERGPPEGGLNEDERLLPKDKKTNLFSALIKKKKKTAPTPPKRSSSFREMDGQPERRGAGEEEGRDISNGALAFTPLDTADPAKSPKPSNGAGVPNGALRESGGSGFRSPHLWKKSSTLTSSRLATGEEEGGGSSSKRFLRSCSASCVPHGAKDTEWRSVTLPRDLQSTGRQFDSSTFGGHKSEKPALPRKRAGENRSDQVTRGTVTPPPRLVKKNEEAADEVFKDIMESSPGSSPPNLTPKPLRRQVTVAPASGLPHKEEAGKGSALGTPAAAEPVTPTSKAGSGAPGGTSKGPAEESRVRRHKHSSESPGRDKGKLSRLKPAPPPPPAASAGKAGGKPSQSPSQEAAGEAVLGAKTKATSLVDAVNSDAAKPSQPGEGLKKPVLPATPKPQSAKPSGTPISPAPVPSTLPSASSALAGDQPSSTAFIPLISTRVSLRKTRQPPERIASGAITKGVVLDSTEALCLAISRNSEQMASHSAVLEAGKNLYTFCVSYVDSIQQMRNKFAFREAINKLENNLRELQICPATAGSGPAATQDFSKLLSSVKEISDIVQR

[3] = biological target: Tyrosine-protein kinase Blk (Homo sapiens) (UniProt P51451); assay: Inhibition of recombinant human full length N-terminal GST-tagged BLK expressed in baculovirus infected Sf9 cells assessed as change in enzyme activity at 1 uM in presence of 1 uM ATP relative to control; set-up: scale not given: the % may be the effect or the level left
[4] = biological target: Mitogen-activated protein kinase kinase kinase 9 (Homo sapiens) (UniProt P80192); assay: Inhibition of recombinant human N-terminal GST-tagged MLK1 (1 to 433 residues) expressed in baculovirus infected Sf9 cells assessed as change in enzyme activity at 1 uM in presence of 2 uM ATP relative to control; set-up: scale not given: the % may be the effect or the level left
Mitogen-activated protein kinase kinase kinase 9 (Homo sapiens), sequence (P80192 whole entry, looked up, the tested form may be a part): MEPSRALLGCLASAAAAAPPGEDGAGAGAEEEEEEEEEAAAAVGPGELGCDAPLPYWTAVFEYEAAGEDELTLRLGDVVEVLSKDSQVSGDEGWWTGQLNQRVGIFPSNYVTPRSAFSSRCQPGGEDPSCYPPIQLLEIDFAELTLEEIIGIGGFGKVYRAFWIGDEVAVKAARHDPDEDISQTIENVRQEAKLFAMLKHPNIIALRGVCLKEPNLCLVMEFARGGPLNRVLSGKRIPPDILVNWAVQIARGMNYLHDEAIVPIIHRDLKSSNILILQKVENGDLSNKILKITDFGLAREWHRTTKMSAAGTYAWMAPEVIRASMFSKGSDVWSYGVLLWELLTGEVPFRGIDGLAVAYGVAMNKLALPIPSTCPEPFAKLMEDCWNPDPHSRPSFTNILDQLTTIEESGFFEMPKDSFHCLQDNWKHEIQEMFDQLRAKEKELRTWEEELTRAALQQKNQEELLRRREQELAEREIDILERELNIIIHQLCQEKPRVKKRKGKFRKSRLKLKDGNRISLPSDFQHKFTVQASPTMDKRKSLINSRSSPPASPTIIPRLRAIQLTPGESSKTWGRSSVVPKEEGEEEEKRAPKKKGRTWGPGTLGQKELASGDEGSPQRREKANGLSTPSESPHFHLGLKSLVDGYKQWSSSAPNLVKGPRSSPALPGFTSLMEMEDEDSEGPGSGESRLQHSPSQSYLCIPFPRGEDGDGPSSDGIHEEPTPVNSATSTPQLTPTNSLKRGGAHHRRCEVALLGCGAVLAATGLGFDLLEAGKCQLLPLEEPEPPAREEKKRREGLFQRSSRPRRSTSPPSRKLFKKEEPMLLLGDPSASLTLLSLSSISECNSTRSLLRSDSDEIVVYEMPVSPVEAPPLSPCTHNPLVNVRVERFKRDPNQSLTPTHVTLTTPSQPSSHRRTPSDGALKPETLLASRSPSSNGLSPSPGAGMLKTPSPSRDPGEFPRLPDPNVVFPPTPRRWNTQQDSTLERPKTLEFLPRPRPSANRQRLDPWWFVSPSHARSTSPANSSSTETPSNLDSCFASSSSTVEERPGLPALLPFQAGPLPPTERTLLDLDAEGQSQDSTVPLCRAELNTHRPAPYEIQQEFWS

[5] = biological target: Serine/threonine-protein kinase pim-2 (Homo sapiens) (UniProt Q9P1W9); assay: Inhibition of recombinant human full length N-terminal GST-tagged PIM2 expressed in baculovirus infected Sf9 cells assessed as change in enzyme activity at 1 uM in presence of 1 uM ATP relative to control; set-up: scale not given: the % may be the effect or the level left
Serine/threonine-protein kinase pim-2 (Homo sapiens), sequence (Q9P1W9 whole entry, looked up): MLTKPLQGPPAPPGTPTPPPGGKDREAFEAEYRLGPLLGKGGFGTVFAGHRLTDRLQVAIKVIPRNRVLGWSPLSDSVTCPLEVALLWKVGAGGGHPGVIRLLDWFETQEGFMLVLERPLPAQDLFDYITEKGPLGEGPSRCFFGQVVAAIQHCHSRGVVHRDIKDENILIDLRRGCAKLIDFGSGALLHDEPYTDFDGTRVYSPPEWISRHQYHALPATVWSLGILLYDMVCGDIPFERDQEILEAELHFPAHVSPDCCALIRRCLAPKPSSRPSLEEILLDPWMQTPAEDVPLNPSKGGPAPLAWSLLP

[6] = biological target: Tyrosine-protein kinase BTK (Mus musculus, UniProt P35991); assay: Inhibition of mouse BTK assessed as decrease in anti-CD3epsilon antibody stimulated TCR mediated CD69 upregulation in whole blood preincubated for 1 hr followed by antibody challenge after 4 hrs by flow cytometry
[7] = Equilibrium aqueous solubility of the compound at pH 7.4; format: physicochemical
Mus musculus [8] = assay: Ex-vivo inhibition of BTK in C57BL/6J mouse assessed as anti-mouse IgD antibody stimulated BCR mediated CD69 level in whole blood isolated from 30 mg/kg, po bid treated mouse measured after 24 hrs post first dose by flow cytometry relative to control; format: functional; set-up: scale not given: the % may be the effect or the level left
[9] = biological target: Ribosomal protein S6 kinase (Homo sapiens) (UniProt P51812+Q9UBS0+O75676+Q15349+O75582+P23443+Q9UK32+Q15418); assay: Inhibition of recombinant human full length N-terminal GST-tagged p70S6K expressed in baculovirus infected Sf9 cells assessed as change in enzyme activity at 1 uM in presence of 2 uM ATP relative to control; set-up: scale not given: the % may be the effect or the level left
[10] = biological target: Receptor-type tyrosine-protein kinase FLT3 (Homo sapiens) (UniProt P36888); assay: Inhibition of recombinant human N-terminal GST-tagged FLT3 (571 to 993 residues) expressed in baculovirus infected Sf9 cells assessed as change in enzyme activity at 1 uM in presence of 2 uM ATP relative to control; set-up: scale not given: the % may be the effect or the level left
[11] = biological target: Tyrosine-protein kinase JAK1 (Homo sapiens, UniProt P23458); assay: Inhibition of JAK1 (unknown origin)
Tyrosine-protein kinase JAK1, sequence (P23458 whole entry): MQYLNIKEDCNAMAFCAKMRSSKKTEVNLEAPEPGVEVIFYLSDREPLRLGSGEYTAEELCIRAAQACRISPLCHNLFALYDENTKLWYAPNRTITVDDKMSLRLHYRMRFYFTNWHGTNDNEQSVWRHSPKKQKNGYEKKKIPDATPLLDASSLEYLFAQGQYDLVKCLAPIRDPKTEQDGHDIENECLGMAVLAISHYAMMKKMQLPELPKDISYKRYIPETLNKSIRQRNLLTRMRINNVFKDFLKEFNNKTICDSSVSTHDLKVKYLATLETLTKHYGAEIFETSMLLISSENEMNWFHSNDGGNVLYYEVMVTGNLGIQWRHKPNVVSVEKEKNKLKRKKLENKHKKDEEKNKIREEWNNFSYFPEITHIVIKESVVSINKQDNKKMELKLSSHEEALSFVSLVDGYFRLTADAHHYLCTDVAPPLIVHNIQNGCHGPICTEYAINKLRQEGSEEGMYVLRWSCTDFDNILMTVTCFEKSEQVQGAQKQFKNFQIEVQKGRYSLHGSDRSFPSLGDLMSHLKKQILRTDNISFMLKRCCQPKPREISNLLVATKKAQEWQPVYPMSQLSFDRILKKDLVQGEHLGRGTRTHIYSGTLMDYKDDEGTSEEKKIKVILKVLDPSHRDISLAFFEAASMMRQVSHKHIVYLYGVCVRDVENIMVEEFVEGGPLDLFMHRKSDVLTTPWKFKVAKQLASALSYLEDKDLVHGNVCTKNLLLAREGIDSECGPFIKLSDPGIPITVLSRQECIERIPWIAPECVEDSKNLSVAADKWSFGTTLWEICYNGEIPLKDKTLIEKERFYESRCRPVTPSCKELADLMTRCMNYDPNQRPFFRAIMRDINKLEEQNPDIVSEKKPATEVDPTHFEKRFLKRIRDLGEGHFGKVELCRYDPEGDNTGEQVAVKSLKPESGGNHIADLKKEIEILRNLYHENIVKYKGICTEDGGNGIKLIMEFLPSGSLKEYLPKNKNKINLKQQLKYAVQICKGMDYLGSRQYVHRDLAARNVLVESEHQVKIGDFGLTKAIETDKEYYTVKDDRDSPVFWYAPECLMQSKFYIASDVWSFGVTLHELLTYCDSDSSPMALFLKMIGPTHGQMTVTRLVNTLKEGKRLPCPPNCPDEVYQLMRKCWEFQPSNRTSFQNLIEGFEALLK

[12] = biological target: Homeodomain-interacting protein kinase 4 (Homo sapiens) (UniProt Q8NE63); assay: Inhibition of recombinant human full length N-terminal GST-tagged HIPK4 expressed in baculovirus infected Sf9 cells assessed as change in enzyme activity at 1 uM in presence of 2 uM ATP relative to control; set-up: scale not given: the % may be the effect or the level left
[13] = biological target: Cyclin-dependent kinase 1/Cyclin A1 (Homo sapiens) (UniProt P06493+P78396); assay: Inhibition of recombinant human full length N-terminal GST-tagged CDK1/CyclinA1 expressed in baculovirus infected Sf9 cells assessed as change in enzyme activity at 1 uM in presence of 1 uM ATP relative to control; set-up: scale not given: the % may be the effect or the level left
Mus musculus [14] = assay: Antiarthritic activity in DBA/1J mouse type-2 collagen-induced arthritis model assessed as reduction in clinical score immunized with type-2 collagen on day 1 and day 21 followed by LPS challenge on day 28 subsequent compound administration po bid by hematoxylin and eosin staining based assay; format: functional, organism-based
Mus musculus [15] = assay: Ex-vivo inhibition of BTK in C57BL/6J mouse assessed as anti-mouse IgD antibody stimulated BCR mediated CD69 level in whole blood isolated from 10 mg/kg, po bid treated mouse measured after 6 hrs post first dose by flow cytometry relative to control; format: functional; set-up: scale not given: the % may be the effect or the level left
[16] = biological target: Tyrosine-protein kinase ITK/TSK (Homo sapiens, UniProt Q08881); assay: Inhibition of recombinant human full length ITK preincubated for 10 mins followed by Tk-biotin peptide substrate addition after 60 mins by TR-FRET assay
[17] = Clearance in mouse at 3 mg/kg, iv; format: ADME, organism-based; conditions: in vivo
[18] = biological target: Inhibitor of nuclear factor kappa-B kinase subunit beta (Homo sapiens) (UniProt O14920); assay: Inhibition of recombinant human N-terminal GST-tagged IKKbeta expressed in baculovirus infected Sf9 cells assessed as change in enzyme activity at 1 uM in presence of 1 uM ATP relative to control; set-up: scale not given: the % may be the effect or the level left
[19] = biological target: Ephrin type-A receptor 3 (Homo sapiens) (UniProt P29320); assay: Inhibition of recombinant human N-terminal GST-tagged EPHA3 (571 to end residues) expressed in baculovirus infected Sf9 cells assessed as change in enzyme activity at 1 uM in presence of 2 uM ATP relative to control; set-up: scale not given: the % may be the effect or the level left
[20] = biological target: Serine/threonine-protein kinase Nek11 (Homo sapiens) (UniProt Q8NG66); assay: Inhibition of recombinant human full length N-terminal GST-tagged NEK11 expressed in baculovirus infected Sf9 cells assessed as change in enzyme activity at 1 uM in presence of 2 uM ATP relative to control; set-up: scale not given: the % may be the effect or the level left
[21] = Equilibrium aqueous solubility of the compound at pH 2.1; format: physicochemical
[22] = biological target: PAK 1/CDC42 (Homo sapiens) (UniProt Q13153+P60953); assay: Inhibition of recombinant human full length N-terminal GST-tagged PAK1/CDC42 expressed in baculovirus infected Sf9 cells assessed as change in enzyme activity at 1 uM in presence of 2 uM ATP relative to control; set-up: scale not given: the % may be the effect or the level left
PAK 1/CDC42 (Homo sapiens), sequence (P60953 whole entry, looked up): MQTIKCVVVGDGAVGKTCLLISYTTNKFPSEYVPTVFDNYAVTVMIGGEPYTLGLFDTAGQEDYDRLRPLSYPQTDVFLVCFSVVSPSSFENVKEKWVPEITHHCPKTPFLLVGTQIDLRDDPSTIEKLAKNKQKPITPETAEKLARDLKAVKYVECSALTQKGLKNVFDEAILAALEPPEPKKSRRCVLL
PAK 1/CDC42 (Homo sapiens), sequence (Q13153 whole entry, looked up): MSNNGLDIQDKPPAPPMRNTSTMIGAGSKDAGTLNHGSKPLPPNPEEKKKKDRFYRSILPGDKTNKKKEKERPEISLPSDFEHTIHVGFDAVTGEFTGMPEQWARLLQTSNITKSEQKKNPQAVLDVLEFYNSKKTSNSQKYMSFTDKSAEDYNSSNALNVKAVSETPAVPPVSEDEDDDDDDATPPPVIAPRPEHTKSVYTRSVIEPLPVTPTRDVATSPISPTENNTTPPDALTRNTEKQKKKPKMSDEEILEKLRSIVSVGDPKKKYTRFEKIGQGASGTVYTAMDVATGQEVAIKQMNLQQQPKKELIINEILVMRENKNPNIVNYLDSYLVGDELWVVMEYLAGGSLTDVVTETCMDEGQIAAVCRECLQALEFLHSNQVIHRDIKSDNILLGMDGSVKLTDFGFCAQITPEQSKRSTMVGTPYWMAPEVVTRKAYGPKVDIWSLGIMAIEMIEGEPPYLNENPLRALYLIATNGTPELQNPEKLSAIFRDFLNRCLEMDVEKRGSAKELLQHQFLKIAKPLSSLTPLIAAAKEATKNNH

[23] = biological target: Vascular endothelial growth factor receptor 3 (Homo sapiens) (UniProt P35916); assay: Inhibition of recombinant human N-terminal GST-tagged FLT4 (800 to end residues) expressed in baculovirus infected Sf9 cells assessed as change in enzyme activity at 1 uM in presence of 2 uM ATP relative to control; set-up: scale not given: the % may be the effect or the level left
[24] = biological target: Insulin-like growth factor 1 receptor (Homo sapiens) (UniProt P08069); assay: Inhibition of recombinant human N-terminal His tagged IGF1R (960 to end residues) expressed in baculovirus infected Sf9 cells assessed as change in enzyme activity at 1 uM in presence of 2 uM ATP relative to control; set-up: scale not given: the % may be the effect or the level left
Mus musculus [25] = assay: Antiarthritic activity in DBA/1J mouse type-2 collagen-induced arthritis model assessed as reduction in joint histological score immunized with type-2 collagen on day 1 and day 21 followed by LPS challenge on day 28 subsequent compound administration po bid by hematoxylin and eosin staining based assay; format: functional, organism-based
[26] = biological target: MAP kinase-activated protein kinase 3 (Homo sapiens) (UniProt Q16644); assay: Inhibition of recombinant human full length N-terminal GST-tagged MAPKAPK3 expressed in baculovirus infected Sf9 cells assessed as change in enzyme activity at 1 uM in presence of 1 uM ATP relative to control; set-up: scale not given: the % may be the effect or the level left
MAP kinase-activated protein kinase 3 (Homo sapiens), sequence (Q16644 whole entry, looked up): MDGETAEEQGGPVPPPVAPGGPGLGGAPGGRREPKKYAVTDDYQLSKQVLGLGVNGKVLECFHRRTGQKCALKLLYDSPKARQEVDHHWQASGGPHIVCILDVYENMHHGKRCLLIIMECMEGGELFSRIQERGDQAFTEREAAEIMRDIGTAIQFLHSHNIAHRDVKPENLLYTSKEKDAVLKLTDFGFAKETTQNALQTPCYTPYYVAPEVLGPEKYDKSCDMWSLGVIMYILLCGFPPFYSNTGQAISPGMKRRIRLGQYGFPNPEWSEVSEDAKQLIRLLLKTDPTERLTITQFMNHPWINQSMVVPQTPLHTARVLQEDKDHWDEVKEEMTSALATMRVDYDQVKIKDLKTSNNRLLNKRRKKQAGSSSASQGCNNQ

Compound	Activity [1] [%]	Activity [2] [%]	Activity [3] [%]	Activity [4] [%]	Activity [5] [%]	IC50 [6] [µM]	solubility thermodynamic [7] [µM]	Activity (Mus musculus [8]) [%]	Activity [9] [%]	Activity [10] [%]	IC50 [11] [µM]	Activity [12] [%]	Activity [13] [%]	Activity (Mus musculus [14])	Activity (Mus musculus [15]) [%]	IC50 [16] [µM]	clearance [17] [mL/min/kg]	Activity [18] [%]	Activity [19] [%]	Activity [20] [%]	other results
O=C1c2c(F)cc(C3CC3)cc2OCCN1c1cccc(-c2ccnc3[nH]c(C4=CCN(C5COC5)CC4)cc23)c1CO	3	-16	3	2	1	> 30	31 (≈ 18 µg/mL)	9.5	-28	-5	> 10	3	-3	Dose-dependent effect	44	> 10	5.5	1	-3	-6	solubility thermodynamic [21]: > 2000 µM; Activity [22]: 2%; Activity [23]: -3%; Activity [24]: -6%; Activity (Mus musculus [25]): Dose-dependent effect; Activity [26]: 3%
CCN1CCN(Cc2ccc(-c3cc4c(-c5cccc(N6CCOc7cc(C8CC8)cc(F)c7C6=O)c5CO)ccnc4[nH]3)nc2)CC1	2	-41	1	-6	0	5.06	15 (≈ 9.7 µg/mL)	47	2	-5	> 10	1	1	Dose-dependent effect	69	> 10	4.6	0	-2	-5	solubility thermodynamic [21]: > 2000 µM; Activity [22]: 0%; Activity [23]: -3%; Activity [24]: 4%; Activity (Mus musculus [25]): Dose-dependent effect; Activity [26]: -4%
